From patent US20210300940A1 (Merck Patent GmbH, priority 2018, published 2021)

Columns and labels:
[1] = target: T1, TLR8 (Homo sapiens, UniProt Q9NR97); experiment: HEK/293 TLR8 Cell Assay; assay type: cell-based; settings: HEK cells, R848 agonist 30 uM final concentration, Steady-Glo readout; read-out: TLR8 potency
T1 construct: expressed in transfected cells; host or cells: HEK/293 reporter cells (NF-kB luciferase)
T1 sequence (Q9NR97 27-1041): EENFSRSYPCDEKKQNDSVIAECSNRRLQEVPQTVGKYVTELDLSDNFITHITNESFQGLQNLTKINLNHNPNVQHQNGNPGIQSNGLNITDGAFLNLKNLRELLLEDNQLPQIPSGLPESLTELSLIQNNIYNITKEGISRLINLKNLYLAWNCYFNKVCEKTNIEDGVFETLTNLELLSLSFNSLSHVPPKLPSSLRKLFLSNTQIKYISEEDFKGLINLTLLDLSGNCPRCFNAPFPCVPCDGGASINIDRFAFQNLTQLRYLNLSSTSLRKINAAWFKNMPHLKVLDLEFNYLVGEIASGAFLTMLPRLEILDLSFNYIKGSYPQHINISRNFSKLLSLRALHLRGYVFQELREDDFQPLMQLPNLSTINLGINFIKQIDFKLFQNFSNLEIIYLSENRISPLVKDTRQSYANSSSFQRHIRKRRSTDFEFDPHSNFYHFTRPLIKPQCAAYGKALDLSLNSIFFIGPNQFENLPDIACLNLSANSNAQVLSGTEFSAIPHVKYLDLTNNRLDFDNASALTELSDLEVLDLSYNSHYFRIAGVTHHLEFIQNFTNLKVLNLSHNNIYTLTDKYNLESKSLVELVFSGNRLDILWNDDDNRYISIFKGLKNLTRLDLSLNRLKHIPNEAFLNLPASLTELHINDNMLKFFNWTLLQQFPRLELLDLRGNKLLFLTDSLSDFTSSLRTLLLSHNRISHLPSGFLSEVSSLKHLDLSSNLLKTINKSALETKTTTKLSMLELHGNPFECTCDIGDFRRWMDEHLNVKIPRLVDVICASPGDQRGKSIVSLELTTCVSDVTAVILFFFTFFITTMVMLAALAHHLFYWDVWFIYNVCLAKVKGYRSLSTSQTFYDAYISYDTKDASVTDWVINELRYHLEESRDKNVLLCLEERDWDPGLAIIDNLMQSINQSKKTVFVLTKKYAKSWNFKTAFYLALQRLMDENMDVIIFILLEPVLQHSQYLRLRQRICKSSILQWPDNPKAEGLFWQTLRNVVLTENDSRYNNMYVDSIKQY
Procedure: (§1) Example 390: HEK/293 TLR8 Cell Assay Into 384 CulturePlates (Corning 3765) was placed 5000 c/w of […] in 30 uL DMEM without Phenol red (gibco #31053-028) and 10% heat inactivated fetal bovine serum, 1% penicillin-streptomycin, and 2 mM L-Glutamine. The cells were incubated for 24 h at 37° C., 10% carbon dioxide and 90% relative humidity. 3 uL of controls, standards, and compounds were dispensed into wells, incubated for 30 min then 3 uL of R848 agonist (30 uM final concentration) was added in 20 mM Hepes. After incubation for 5 hours, they were allowed to stand at room temperature for 15 min. To this was added 10 uL of Steady-Glo substrate reagent and shake assay plate for 5 min at 1500 rpm. The assay plate was allowed to sit for 30 min at room temperature and then the plate was read on EnVision.

[2] = target: T2, TLR7 (Homo sapiens, UniProt Q9NYK1); experiment: HEK/293 TLR7 Cell Assay; assay type: cell-based; settings: TLR7/NFKb HEK cells, R848 agonist 10 uM final concentration, Steady-Glo readout; read-out: TLR7 potency
T2 construct: expressed in transfected cells; host or cells: HEK/293 cells carrying TLR7 and an NF-kB luciferase reporter
T2 sequence (Q9NYK1 27-1049): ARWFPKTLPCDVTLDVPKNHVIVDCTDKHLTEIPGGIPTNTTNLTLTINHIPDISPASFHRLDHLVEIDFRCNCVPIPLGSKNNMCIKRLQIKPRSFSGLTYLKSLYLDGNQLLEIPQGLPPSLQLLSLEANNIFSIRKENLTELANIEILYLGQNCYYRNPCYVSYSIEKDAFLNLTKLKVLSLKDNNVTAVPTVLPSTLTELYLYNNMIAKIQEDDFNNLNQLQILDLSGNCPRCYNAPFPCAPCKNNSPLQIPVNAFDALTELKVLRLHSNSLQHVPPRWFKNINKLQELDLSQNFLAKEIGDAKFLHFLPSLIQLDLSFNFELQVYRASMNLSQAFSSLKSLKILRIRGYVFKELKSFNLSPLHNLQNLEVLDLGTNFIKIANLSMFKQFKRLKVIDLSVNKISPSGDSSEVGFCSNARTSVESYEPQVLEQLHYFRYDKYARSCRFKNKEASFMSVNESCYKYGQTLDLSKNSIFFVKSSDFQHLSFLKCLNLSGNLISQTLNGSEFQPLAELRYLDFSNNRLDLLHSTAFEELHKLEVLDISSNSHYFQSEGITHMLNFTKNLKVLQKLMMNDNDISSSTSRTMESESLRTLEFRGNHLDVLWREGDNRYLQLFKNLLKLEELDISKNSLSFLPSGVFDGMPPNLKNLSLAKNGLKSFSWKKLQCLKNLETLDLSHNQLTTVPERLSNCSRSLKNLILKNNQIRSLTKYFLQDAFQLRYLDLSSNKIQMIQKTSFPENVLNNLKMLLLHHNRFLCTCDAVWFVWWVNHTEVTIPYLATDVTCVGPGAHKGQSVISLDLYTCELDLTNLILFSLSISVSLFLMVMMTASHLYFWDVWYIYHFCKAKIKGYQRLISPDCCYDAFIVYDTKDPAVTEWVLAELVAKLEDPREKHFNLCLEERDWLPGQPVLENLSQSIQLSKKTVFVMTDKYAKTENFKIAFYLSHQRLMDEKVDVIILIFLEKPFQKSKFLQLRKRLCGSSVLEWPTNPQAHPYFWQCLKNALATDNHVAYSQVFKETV
Procedure: as §1, with “389:” for “390:”, “TLR7” for “TLR8”, “[…]” for “1%”, “(10” for “(30”

IC50 [1] [nM]	IC50 [2] [nM]	SMILES
75 to 150	75 to 150	CN(C)CCNC(=O)N[C@@H]1C[C@H](C(F)(F)F)CN(c2ccc(C(F)(F)F)c3nccnc23)C1 [Example 142, 3-[2-(dimethylamino)ethyl]-1-[(3R,5S)-5-(trifluoromethyl)-1-[8-(trifluoromethyl)quinoxalin-5-yl]piperidin-3-yl]urea]
> 150	< 75	C[C@@H]1CN(c2ccc(C#N)c3nccnc23)C[C@H](C(=O)NC2CN(CC(F)(F)F)C2)O1 [Example 254, (2R,6R)-4-(8-Cyano-quinoxalin-5-yl)-6-methyl-morpholine-2-carboxylic acid [1-(2,2,2-trifluoro-ethyl)-azetidin-3-yl]-amide]
< 75	75 to 150	Cc1c(F)cc(N2C[C@H](NC(=O)CC3C4CC3CN(C)C4)C[C@H](C(F)(F)F)C2)c2cccnc12 (stereo partly drawn) [Example 113, N-[(3R,5S)-1-(7-Fluoro-8-methyl-quinolin-5-yl)-5-trifluoromethyl-piperidin-3-yl]-2-(3-methyl-3-aza-bicyclo[3.1.1]hept-6-yl)-acetamide]
< 75	< 75	Cc1c(F)cc(N2C[C@@H](C)O[C@@H](C(=O)N[C@H]3CNC[C@H]3F)C2)c2cccnc12 [Example 298, (2R,6R)-4-(7-Fluoro-8-methyl-quinolin-5-yl)-6-methyl-morpholine-2-carboxylic acid ((3S,4R)-4-fluoro-pyrrolidin-3-yl)-amide]
> 150	75 to 150	CC(C(=O)N[C@@H]1C[C@H](C)CN(c2ccc(C#N)c3ncncc23)C1)N1CCN(C)CC1 (single isomer, unassigned) [Example 96]
> 150	75 to 150	N[C@H](CO)C(=O)N[C@@H]1C[C@H](C(F)(F)F)CN(c2ccc(C(F)(F)F)c3ncccc23)C1 [Example 172, (R)-2-Amino-3-hydroxy-N-[(3R,5S)-5-trifluoromethyl-1-(8-trifluoromethyl-quinolin-5-yl)-piperidin-3-yl]-propionamide]
75 to 150	< 75	C[C@@H]1CN(c2ccc(C(F)(F)F)c3ncccc23)C[C@H](CN2CCC(N3CCCC3)CC2)O1 [Example 328, 5-[(2R,6S)-2-Methyl-6-(4-pyrrolidin-1-yl-piperidin-1-ylmethyl)-morpholin-4-yl]-8-trifluoromethyl-quinoline]
< 75	< 75	CC(=O)NCCN[C@@H]1C[C@H](C)CN(c2ccc(C(F)(F)F)c3ncccc23)C1 [Example 37, N-{2-[(3R,5S)-5-Methyl-1-(8-trifluoromethyl-quinolin-5-yl)-piperidin-3-ylamino]-ethyl}-acetamide formic acid]
< 75	< 75	N#Cc1ncc(N2C[C@@H](C(=O)NC[C@]3(F)CCNC3)O[C@@H](C(F)(F)F)C2)c2cccnc12 (single isomer, unassigned) [Example 319]
< 75	> 150	Cc1c(F)cc(N2C[C@H](NC(=O)[C@@H]3CCCN3)C[C@H](C(F)(F)F)C2)c2cccnc12 [Example 115, (2S)—N-[(3R,5S)-1-(7-fluoro-8-methylquinolin-5-yl)-5-(trifluoromethyl)piperidin-3-yl]pyrrolidine-2-carboxamide]
75 to 150	> 150	C[C@@H](O)[C@H](N)C(=O)N1CCC(CC(=O)N[C@@H]2C[C@H](C(F)(F)F)CN(c3ccc(C#N)c4ncccc34)C2)CC1 [Example 184, 2-[1-((2S,3R)-2-Amino-3-hydroxy-butyryl)-piperidin-4-yl]-N-[(3R,5S)-1-(8-cyano-quinolin-5-yl)-5-trifluoromethyl-piperidin-3-yl]-acetamide]
< 75	< 75	Cc1ccc(N2C[C@H](NC(=O)CC3(O)CCN(C)CC3)C[C@H](C(F)(F)F)C2)c2cccnc12 [Example 87, 2-(4-hydroxy-1-methylpiperidin-4-yl)-N-[(3R,5S)-1-(8-methylquinolin-5-yl)-5-(trifluoromethyl)piperidin-3-yl]acetamide]

SMILES	IC50 [1] [nM]	IC50 [2] [nM]
CNS(=O)(=O)CCNC(=O)[C@H]1CN(c2ccc(C#N)c3nccnc23)C[C@@H](C)O1 [Example 255, (2R,6R)-4-(8-cyanoquinoxalin-5-yl)-6-methyl-N-[2-(methylsulfamoyl)ethyl]morpholine-2-carboxamide]	< 75	< 75
C[C@H]1C[C@@H](NCCNS(C)(=O)=O)CN(c2ccc(C#N)c3nccnc23)C1 [Example 41, N-{2-[(3R,5S)-1-(8-Cyano-quinoxalin-5-yl)-5-methyl-piperidin-3-ylamino]-ethyl}-methanesulfonamide]	< 75	< 75
N#Cc1ccc(N2C[C@@H](C(=O)NC[C@@]3(F)CCNC3)O[C@@H](C(F)(F)F)C2)c2nccnc12 (single isomer, unassigned) [Example 308]	< 75	< 75
C[C@H]1C[C@@H](NC(=O)CC2(F)CCN(C)CC2)CN(c2ccc(C#N)c3ncncc23)C1 [Example 88, N-[(3R,5S)-1-(8-cyanoquinazolin-5-yl)-5-methylpiperidin-3-yl]-2-(4-fluoro-1-methylpiperidin-4-yl)acetamide]	< 75	< 75
C[C@@H]1CN(c2ccc(C#N)c3nccnc23)C[C@H](C(=O)NCC2CCCN2C)O1 (stereo partly drawn) [Example 245, (2R,6R)-4-(8-Cyano-quinoxalin-5-yl)-6-methyl-morpholine-2-carboxylic acid (1-methyl-pyrrolidin-2-ylmethyl)-amide]	< 75	< 75
